According to PubChem BioAssay AID330 (DTP/NCI, 2004):
“And” between values parts separate entries of the source, which are not always exact repeats. Equal entries are not always repeated. Inconclusive results and toxic doses are left out.

Test system: P388 leukemia ip, CD2F1 mice, survival T/C
Assay: NCI In Vivo Anticancer Drug Screen. Data for tumor model P388 Leukemia (intraperitoneal) in CD2F1 (CDF1) mice
Details: endpoint: median survival time, higher = longer survival
Procedure, shortened: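 Mice carrying the transplanted tumor received test compound or vehicle. Survival was recorded in each group, and the value is the treated-group measurement divided by that of the vehicle-treated control group.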

[1] = dose: 50.0 mg/kg/injection, schedule: Q01DX009 (ip), vehicle: saline with Tween-80
[2] = dose: 100.0 mg/kg/injection, schedule: Q01DX009 (ip), vehicle: saline with Tween-80
[3] = dose: 60.0 mg/kg/injection, schedule: Q01DX005 (ip), vehicle: saline with Tween-80
[4] = dose: 120.0 mg/kg/injection, schedule: Q01DX005 (ip), vehicle: saline with Tween-80
[5] = dose: 100.0 mg/kg/injection, schedule: Q04DX002 (ip), vehicle: saline
[6] = dose: 200.0 mg/kg/injection, schedule: Q04DX002 (ip), vehicle: saline
[7] = dose: 100.0 mg/kg/injection, schedule: Q01DX005 (ip), vehicle: saline with Tween-80
[8] = dose: 12.5 mg/kg/injection, schedule: Q01DX009 (ip), vehicle: saline with Tween-80

Q: `CCOC(=O)C1=C(NC(C)=O)Sc2ccccc2C1` was tested. Which T/C (dose: 50.0 mg/kg/injection, schedule: Q01DX009 (ip), vehicle: saline) did it give?
A: 94 % of control

Q: What about the T/C (dose: 100.0 mg/kg/injection, schedule: Q01DX009 (ip), vehicle: saline) of the same molecule?
A: 103 % of control

Q: And the T/C (dose: 200.0 mg/kg/injection, schedule: Q01DX009 (ip), vehicle: saline)?
A: 92 % of control

Q: How did the T/C (dose: 25.0 mg/kg/injection, schedule: Q01DX005 (ip), vehicle: saline) turn out when `CC[n+]1c(C)sc2ccccc21` was run?
A: 91 % of control

Q: And the T/C (dose: 50.0 mg/kg/injection, schedule: Q01DX005 (ip), vehicle: saline)?
A: 94 % of control

Q: For `CC1(C)O[S+](c2ccccc2)c2ccccc21` (stereo unspecified), which T/C (dose: 50.0 mg/kg/injection, schedule: Q01DX009 (ip), vehicle: Klucel (hydroxypropylcellulose) (HPC)) is on record?
A: 102 % of control

Q: And the T/C (dose: 100.0 mg/kg/injection, schedule: Q01DX009 (ip), vehicle: Klucel (hydroxypropylcellulose) (HPC))?
A: 107 % of control

Q: What about the T/C (dose: 200.0 mg/kg/injection, schedule: Q01DX009 (ip), vehicle: Klucel (hydroxypropylcellulose) (HPC)) of the same molecule?
A: 108 % of control

Q: `CC(Sc1ccccc1)C(=O)N1CCCC1` (stereo unspecified) was tested. Which T/C [1] did it give?
A: 106 % of control

Q: And the T/C [2]?
A: 103 % of control

Q: What about the T/C (dose: 200.0 mg/kg/injection, schedule: Q01DX009 (ip), vehicle: saline with Tween-80) of the same molecule?
A: 105 % of control

Q: With `C=CCSc1nnc(-c2ccc(C(C)(C)C)cc2)n1-c1cccc(C(F)(F)F)c1` as the molecule, how does the T/C [3] read?
A: 100 % of control

Q: And the T/C [4]?
A: 100 % of control

Q: And the T/C (dose: 240.0 mg/kg/injection, schedule: Q01DX005 (ip), vehicle: saline with Tween-80)?
A: 94 % of control

Q: Which results are given for `COCC1CCCN1` (stereo unspecified)?
A: T/C [5]: 104 % of control; T/C [6]: 110 % of control

Q: With `Cc1nc2c([N+](=O)[O-])c(NCc3ccccc3)c([N+](=O)[O-])cc2[nH]1` as the molecule, how does the T/C (dose: 100.0 mg/kg/injection, schedule: Q04DX003 (ip), vehicle: saline with Tween-80) read?
A: 97 % of control

Q: And the T/C (dose: 200.0 mg/kg/injection, schedule: Q04DX003 (ip), vehicle: saline with Tween-80)?
A: 95 % of control

Q: And the T/C (dose: 400.0 mg/kg/injection, schedule: Q04DX003 (ip), vehicle: saline with Tween-80)?
A: 101 % of control

Q: For `Cc1ccc(Nc2ncnc3c2c(=O)n(C)c(=O)n3C)cc1`, which T/C (dose: 30.0 mg/kg/injection, schedule: Q01DX005 (ip), vehicle: saline with Tween-80) is on record?
A: 88 % of control

Q: What about the T/C [3] of the same molecule?
A: 90 % of control

Q: And the T/C [4]?
A: 90 % of control

Q: Which results are given for `COP(=O)(OC)C1(Nc2ccccc2)C2CC3CC(C2)CC1C3` (stereo unspecified)?
A: T/C (dose: 100.0 mg/kg/injection, schedule: Q01DX001 (ip), vehicle: saline with Tween-80): 105 % of control; T/C (dose: 200.0 mg/kg/injection, schedule: Q01DX001 (ip), vehicle: saline with Tween-80): 110 % of control; T/C (dose: 400.0 mg/kg/injection, schedule: Q01DX001 (ip), vehicle: saline with Tween-80): 102 % of control

Q: Which results are given for `C=CCn1c2c(c3ccccc3c1=O)C(=O)c1ccccc1-2`?
A: T/C (dose: 6.25 mg/kg/injection, schedule: Q01DX005 (ip), vehicle: saline with Tween-80): 97 % of control; T/C (dose: 12.5 mg/kg/injection, schedule: Q01DX005 (ip), vehicle: saline with Tween-80): 99 % of control; T/C (dose: 25.0 mg/kg/injection, schedule: Q01DX005 (ip), vehicle: saline with Tween-80): 99 % of control; T/C [7]: 87 % of control

Q: Which results are given for `CN1C2CCC1CC(OC(=O)C(CO)c1ccccc1)C2` (stereo unspecified)?
A: T/C [8]: 105 % of control and 95 % of control; T/C (dose: 25.0 mg/kg/injection, schedule: Q01DX009 (ip), vehicle: saline with Tween-80): 100 % of control and 111 % of control; T/C [1]: 103 % of control and 92 % of control; T/C [2]: 100 % of control and 95 % of control; T/C (dose: 150.0 mg/kg/injection, schedule: Q01DX009 (ip), vehicle: saline with Tween-80): 112 % of control and 95 % of control

Q: For `O=C(Nc1ccc(NC(=O)Nc2ccc(C3=NCCN3)cc2)cc1)Nc1ccc(C2=NCCN2)cc1`, which T/C (dose: 110.0 mg/kg/injection, schedule: Q01DX010 (ip), vehicle: saline) is on record?
A: 118 % of control

Q: And the T/C (dose: 165.0 mg/kg/injection, schedule: Q01DX010 (ip), vehicle: saline)?
A: 118 % of control

Q: `Cc1cccnc1NCc1ccccn1` was tested. Which T/C (dose: 50.0 mg/kg/injection, schedule: Q01DX005 (ip), vehicle: saline with Tween-80) did it give?
A: 103 % of control

Q: What about the T/C [7] of the same molecule?
A: 100 % of control

Q: What about the T/C (dose: 200.0 mg/kg/injection, schedule: Q01DX005 (ip), vehicle: saline with Tween-80) of the same molecule?
A: 93 % of control

Q: For `C1=CC=CCC=C1`, which T/C [8] is on record?
A: 120 % of control

Q: For `CC1CN(/C=C2\Cc3c(Cl)cccc3C2=O)CCN1c1ccc(Cl)cc1` (stereo unspecified), which T/C [5] is on record?
A: 100 % of control

Q: What about the T/C [6] of the same molecule?
A: 102 % of control

Q: And the T/C (dose: 400.0 mg/kg/injection, schedule: Q04DX002 (ip), vehicle: saline)?
A: 100 % of control

Q: What does the source list for `CCOC(=O)C1C(c2ccc(OC)cc2)c2cc3c(cc2OC1(C)N1CCCC1)OCO3` (stereo unspecified)?
A: T/C (dose: 60.0 mg/kg/injection, schedule: Q01DX005 (ip), vehicle: Klucel (hydroxypropylcellulose) (HPC)): 98 % of control; T/C (dose: 120.0 mg/kg/injection, schedule: Q01DX005 (ip), vehicle: Klucel (hydroxypropylcellulose) (HPC)): 96 % of control; T/C (dose: 240.0 mg/kg/injection, schedule: Q01DX005 (ip), vehicle: Klucel (hydroxypropylcellulose) (HPC)): 93 % of control
